Assay results reported in patent US20180002320A1, “USE OF MACROCYCLIC PICOLINAMIDES AS FUNGICIDES” (DOW AGROSCIENCES LLC, priority 2014, published 2018).
Like-named read-outs stand apart in the source and are kept apart here.

Key:
[1] = system: Puccinia triticina; assay: Wheat Brown Rust (PUCCRT) fungicidal activity; type: in vivo; settings: for pest or weed control at 121.5 g/ha: Low Volume (121.5 g/H); for pest or weed control at 100 µg/mL: High Volume (100 ppm)
Outline: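 Yuma wheat seedlings at the first-leaf stage were sprayed to run-off with compound in acetone diluted with nine volumes of water containing 110 ppm Triton X-100. Some sprays were track-sprayed EC formulations with 0.1% Trycol 5941. Puccinia triticina spores were inoculated before or after treatment, followed by overnight dark dew at 22 °C and 100% RH, then 24 °C greenhouse.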

[2] = system: Zymoseptoria tritici; assay: Leaf Blotch of Wheat (SEPTTR) fungicidal activity; type: in vivo; settings: for pest or weed control at 121.5 g/ha: Low Volume (121.5 g/H); for pest or weed control at 100 µg/mL: High Volume (100 ppm)
Outline: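 First-leaf Yuma wheat seedlings were sprayed to run-off (acetone solution in nine volumes water, 110 ppm Triton X-100; or track-sprayed EC, 0.1% Trycol 5941) and spore-inoculated before or after treatment. Held at 100% RH (1 day dark, 2–3 lit, 20 °C), greenhouse 20 °C; % control from 0–100% severity vs untreated.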

[3] = 24 h, 1 Day Protectant, read-out: PUCCRT 1DP disease control
[4] = 72 h, 3 Day Curative, read-out: PUCCRT 3DC disease control
[5] = 24 h, 1 Day Protectant, read-out: SEPTTR 1DP disease control
[6] = 72 h, 3 Day Curative, read-out: SEPTTR 3DC disease control

| Structure (SMILES) | pest or weed control at 121.5 g/ha [1, 3] [%] | pest or weed control at 121.5 g/ha [1, 4] [%] | pest or weed control at 121.5 g/ha [2, 5] [%] | pest or weed control at 121.5 g/ha [2, 6] [%] | pest or weed control at 100 µg/mL [1, 3] [%] | pest or weed control at 100 µg/mL [1, 4] [%] | pest or weed control at 100 µg/mL [2, 5] [%] | pest or weed control at 100 µg/mL [2, 6] [%] |
| --- | --- | --- | --- | --- | --- | --- | --- | --- |
| COc1ccnc(C(=O)N[C@H]2COCC[C@H](Cc3ccc(F)cc3)[C@@H](OCC3CC3)[C@H](C)OC2=O)c1OC(C)=O [Compound 77] | > 80 | > 80 | > 80 | < 80 |  |  |  |  |
| CCOCC(=O)OCOc1c(OC)ccnc1C(=O)N[C@H]1COCC[C@H](Cc2ccc(F)cc2)[C@@H](OCC2CC2)[C@H](C)OC1=O [Compound 78] | > 80 | > 80 | > 80 | < 80 |  |  |  |  |
| CC[C@H]1CCOC[C@H](NC(=O)c2nccc(OC)c2OCOC(C)=O)C(=O)O[C@@H](C)[C@@H]1OC(=O)C1CC1 [Compound 79] | > 80 | > 80 | > 80 |  |  |  |  |  |
| CC[C@H]1CCOC[C@H](NC(=O)c2nccc(OC)c2OC(C)=O)C(=O)O[C@@H](C)[C@@H]1OC(=O)c1ccccc1 [Compound 80] | > 80 | > 80 | > 80 | < 80 |  |  |  |  |
| COc1ccnc(C(=O)N[C@H]2COCCC[C@@H](CCC(C)C)[C@H](C)OC2=O)c1O [Compound 112] |  |  |  |  | < 80 | < 80 | < 80 | < 80 |
